Assay [1] has as its target Melanocyte-stimulating hormone receptor (Homo sapiens, UniProt Q01726). Nature of the assay: Agonistic activity against human Melanocortin 1 receptor. In kind it is functional.
For the next assay, the target named is Melanocortin receptor 3 (Homo sapiens, UniProt P41968). Nature of the assay: Agonistic activity against human Melanocortin 3 receptor. In kind it is functional.
In another assay the target is Melanocortin receptor 4 (Homo sapiens, UniProt P32245). In words: Agonistic activity against human Melanocortin 4 receptor. The class given is functional.
Melanocortin receptor 4, sequence (P32245 whole entry): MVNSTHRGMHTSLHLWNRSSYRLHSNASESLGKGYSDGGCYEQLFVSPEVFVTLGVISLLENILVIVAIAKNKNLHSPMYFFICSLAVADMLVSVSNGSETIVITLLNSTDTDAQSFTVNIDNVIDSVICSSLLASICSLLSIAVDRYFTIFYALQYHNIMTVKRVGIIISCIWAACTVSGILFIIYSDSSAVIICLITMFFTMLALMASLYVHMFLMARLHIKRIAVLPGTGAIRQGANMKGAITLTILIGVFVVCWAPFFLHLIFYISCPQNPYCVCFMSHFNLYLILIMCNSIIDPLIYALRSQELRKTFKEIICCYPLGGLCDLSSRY
The target in assay [2] is Melanocortin receptor (M1 and M4) (Homo sapiens) (UniProt P32245+Q01726). In words: Ratio of EC50 of Melanocortin 4 receptor to that of Melanocortin 1 receptor. The class given is protein assay.
For assay [3], the target named is Melanocortin receptor (M3 and M4) (Homo sapiens) (UniProt P32245+P41968). In words: Ratio of EC50 of Melanocortin 4 receptor to that of Melanocortin 3 receptor. The class given is protein assay.

Melanocyte-stimulating hormone receptor, sequence (Q01726 whole entry): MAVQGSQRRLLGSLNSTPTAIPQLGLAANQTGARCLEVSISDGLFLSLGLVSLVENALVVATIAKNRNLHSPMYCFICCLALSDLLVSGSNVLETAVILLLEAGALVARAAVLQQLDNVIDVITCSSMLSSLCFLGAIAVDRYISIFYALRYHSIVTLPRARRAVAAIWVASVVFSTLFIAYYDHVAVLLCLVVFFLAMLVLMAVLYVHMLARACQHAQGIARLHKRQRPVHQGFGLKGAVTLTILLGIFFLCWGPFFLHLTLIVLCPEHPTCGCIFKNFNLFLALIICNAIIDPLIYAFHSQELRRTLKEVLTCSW
Melanocortin receptor 3, sequence (P41968 whole entry): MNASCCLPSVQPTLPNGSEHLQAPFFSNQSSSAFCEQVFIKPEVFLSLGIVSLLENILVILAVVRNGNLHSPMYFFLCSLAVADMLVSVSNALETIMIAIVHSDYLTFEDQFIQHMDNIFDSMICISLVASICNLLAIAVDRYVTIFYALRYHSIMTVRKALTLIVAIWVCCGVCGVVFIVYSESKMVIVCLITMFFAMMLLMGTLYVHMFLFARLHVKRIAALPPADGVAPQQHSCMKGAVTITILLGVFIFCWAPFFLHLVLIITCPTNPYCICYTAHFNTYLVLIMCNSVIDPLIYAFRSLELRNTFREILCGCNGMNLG

As to `CNC(=O)N[C@@H](Cc1ccc(Cl)cc1)C(=O)NC(Cc1ccccc1)C(=O)N[C@@H](CCCN=C(N)N)C(=O)N[C@@H](Cc1c[nH]c2ccccc12)C(N)=O` (stereo in doubt), the EC50 in assay [1] was found to be 848 nM; on Melanocortin receptor 3, 86.5 nM; on Melanocortin receptor 4, 8.5 nM. The Ratio in assay [2] turned out to be 100; in assay [3], 10.

In the case of `N=C(N)NCCC[C@H](NC(=O)C(Cc1ccccc1)NC(=O)[C@H](Cc1ccc(Cl)cc1)NC(=O)c1ccccc1)C(=O)N[C@@H](Cc1c[nH]c2ccccc12)C(N)=O` (stereo in doubt), the concentration giving a half-maximal response (EC50) in assay [1] turned out to be 700 nM; on Melanocortin receptor 3, 556 nM; on Melanocortin receptor 4, 135 nM. In addition, the Ratio in assay [2] was 5; in assay [3], 4.

As for `CC(=O)N[C@@H](Cc1ccc(Cl)cc1)C(=O)NC(Cc1ccccc1)C(=O)N[C@@H](CCCN=C(N)N)C(=O)N[C@@H](Cc1c[nH]c2ccccc12)C(N)=O` (stereo in doubt), the values for the 50% effective concentration (EC50) (in assay [1]; at Melanocortin receptor 3; at Melanocortin receptor 4) were 867 nM, 553 nM and 88.5 nM, respectively. In addition, the figures for the Ratio in assay [2] and in assay [3] were 10 and 6, respectively.

`CC(=O)N[C@@H](Cc1c[nH]cn1)C(=O)NC(Cc1ccccc1)C(=O)NC(Cc1ccccc1)C(=O)N[C@@H](CCCN=C(N)N)C(=O)N[C@@H](Cc1c[nH]c2ccccc12)C(N)=O` (stereo in doubt): the EC50 in assay [1] amounted to 13 nM; at Melanocortin receptor 3 it was 170 nM; on Melanocortin receptor 4, 59.5 nM. The figures for the Ratio in assay [2] and in assay [3] were 0.1 and 0.7, respectively.

`N=C(N)NCCC[C@H](NC(=O)C(Cc1ccccc1)NC(=O)[C@H](Cc1ccc(Cl)cc1)NC(=O)c1ccncc1)C(=O)N[C@@H](Cc1c[nH]c2ccccc12)C(N)=O` (stereo in doubt): the EC50 in assay [1] worked out at 541 nM; at Melanocortin receptor 3, 992 nM; at Melanocortin receptor 4 it was 30 nM. In addition, the Ratio is 18 in assay [2] and 33 in assay [3].

In the case of `C=CCNC(=O)N[C@@H](Cc1ccc(Cl)cc1)C(=O)NC(Cc1ccccc1)C(=O)N[C@@H](CCCNC(=N)N)C(=O)N[C@@H](Cc1c[nH]c2ccccc12)C(N)=O` (stereo in doubt), the concentration giving a half-maximal response (EC50) in assay [1] worked out at 505 nM; on Melanocortin receptor 3, 45 nM; at Melanocortin receptor 4, 12 nM. For the same compound, the figures for the Ratio in assay [2] and in assay [3] were 42 and 4, respectively.

`N=C(N)NCCC[C@H](NC(=O)C(Cc1ccccc1)NC(=O)[C@H](Cc1ccc(Cl)cc1)NC(=O)CCc1ccccc1)C(=O)N[C@@H](Cc1c[nH]c2ccccc12)C(N)=O` (stereo in doubt): the concentration for a half-maximal effect (EC50) in assay [1] stood at 442 nM; at Melanocortin receptor 3, 170 nM; at Melanocortin receptor 4 it was 121 nM. The values for the Ratio in assay [2] and in assay [3] were 4 and 1, respectively.

For the compound `CCOC(=O)N[C@@H](Cc1ccc(Cl)cc1)C(=O)NC(Cc1ccccc1)C(=O)N[C@@H](CCCN=C(N)N)C(=O)N[C@@H](Cc1c[nH]c2ccccc12)C(N)=O` (stereo in doubt), the values for the EC50 (in assay [1]; on Melanocortin receptor 3; on Melanocortin receptor 4) were 211 nM, 3080 nM and 35 nM, respectively. Moreover, the Ratio in assay [2] is 6; in assay [3], 88.

`N#CCC(=O)N[C@@H](Cc1ccc(Cl)cc1)C(=O)NC(Cc1ccccc1)C(=O)N[C@@H](CCCNC(=N)N)C(=O)N[C@@H](Cc1c[nH]c2ccccc12)C(N)=O` (stereo in doubt): the figures for the half-maximal effective concentration (EC50) (in assay [1]; at Melanocortin receptor 3; on Melanocortin receptor 4) were 567 nM, 3040 nM and 10.5 nM, respectively. Moreover, the Ratio in assay [2] was 54; in assay [3], 290.

As for `N=C(N)NCCC[C@H](NC(=O)C(Cc1ccccc1)NC(=O)[C@H](Cc1ccc(Cl)cc1)NC(=O)CC(N)=O)C(=O)N[C@@H](Cc1c[nH]c2ccccc12)C(N)=O` (stereo in doubt), the 50% effective concentration (EC50) in assay [1] came out at 597 nM; on Melanocortin receptor 3, 1010 nM; at Melanocortin receptor 4, 14.5 nM. In addition, the Ratio in assay [2] was 41; in assay [3], 70.

Regarding `N=C(N)NCCC[C@H](NC(=O)C(Cc1ccccc1)NC(=O)[C@H](Cc1ccc(Cl)cc1)NC(=O)CC(F)(F)F)C(=O)N[C@@H](Cc1c[nH]c2ccccc12)C(N)=O` (stereo in doubt), the concentration giving a half-maximal response (EC50) in assay [1] came out at 1210 nM; at Melanocortin receptor 3, 886 nM; at Melanocortin receptor 4 it was 150 nM. Besides, in assay [2], the Ratio was found to be 8.

Consider `N=C(N)NCCC[C@H](NC(=O)C(Cc1ccccc1)NC(=O)[C@H](Cc1ccc(Cl)cc1)NC(=O)Cc1ccccc1)C(=O)N[C@@H](Cc1c[nH]c2ccccc12)C(N)=O` (stereo in doubt), for which the 50% effective concentration (EC50) in assay [1] was found to be 699 nM; on Melanocortin receptor 3 it was 43 nM; on Melanocortin receptor 4, 20 nM. Besides, the figures for the Ratio in assay [2] and in assay [3] were 35 and 2, respectively.

In the case of `N=C(N)NCCC[C@H](NC(=O)C(Cc1ccccc1)NC(=O)C(Cc1ccccc1)NC(=O)[C@H](Cc1c[nH]cn1)NC(=O)CCCC(=O)c1ccccc1)C(=O)N[C@@H](Cc1c[nH]c2ccccc12)C(N)=O` (stereo in doubt), the results for the half-maximal effective concentration (EC50) (in assay [1]; at Melanocortin receptor 3; on Melanocortin receptor 4) were 0.05 nM, 3 nM and 5 nM, respectively. Moreover, the Ratio in assay [2] was 0.01.

With `N=C(N)NCCC[C@H](NC(=O)C(Cc1ccccc1)NC(=O)[C@H](Cc1ccc(Cl)cc1)NC(=O)c1cccnc1)C(=O)N[C@@H](Cc1c[nH]c2ccccc12)C(N)=O` (stereo in doubt), the values for the EC50 (in assay [1]; on Melanocortin receptor 3; on Melanocortin receptor 4) were 577 nM, 313 nM and 21 nM, respectively. In addition, the Ratio in assay [2] turned out to be 28; in assay [3], 15.

Consider `CN(C)C(=O)N[C@@H](Cc1ccc(Cl)cc1)C(=O)NC(Cc1ccccc1)C(=O)N[C@@H](CCCN=C(N)N)C(=O)N[C@@H](Cc1c[nH]c2ccccc12)C(N)=O` (stereo in doubt), for which the EC50 was 2160 nM in assay [1], 175 nM on Melanocortin receptor 3 and 42 nM on Melanocortin receptor 4. The Ratio is 51 in assay [2] and 4 in assay [3].

Take `N=C(N)NCCC[C@H](NC(=O)C(Cc1ccccc1)NC(=O)[C@H](Cc1ccc(Cl)cc1)NC(=O)CCCc1ccccc1)C(=O)N[C@@H](Cc1c[nH]c2ccccc12)C(N)=O` (stereo in doubt): the EC50 in assay [1] is 113 nM; on Melanocortin receptor 3, 207 nM; on Melanocortin receptor 4, 82 nM. Also, the Ratio in assay [2] came to 1; in assay [3], 3.

As to `N=C(N)NCCC[C@H](NC(=O)C(Cc1ccccc1)NC(=O)[C@H](Cc1ccc(Cl)cc1)NC(=O)c1cccs1)C(=O)N[C@@H](Cc1c[nH]c2ccccc12)C(N)=O` (stereo in doubt), the concentration giving a half-maximal response (EC50) in assay [1] came out at 892 nM; on Melanocortin receptor 3, 644 nM; at Melanocortin receptor 4, 18.7 nM. Besides, the Ratio stood at 48 in assay [2] and 34 in assay [3].

Take `N=C(N)NCCC[C@H](NC(=O)C(Cc1ccccc1)NC(=O)[C@H](Cc1ccc(Cl)cc1)NC(=O)c1ccsc1)C(=O)N[C@@H](Cc1c[nH]c2ccccc12)C(N)=O` (stereo in doubt): the concentration for a half-maximal effect (EC50) in assay [1] worked out at 671 nM; at Melanocortin receptor 3, 674 nM; on Melanocortin receptor 4 it was 27 nM. Also, the Ratio in assay [2] and in assay [3] was 25 in each case.

With `N=C(N)NCCC[C@H](NC(=O)C(Cc1ccccc1)NC(=O)[C@H](Cc1ccc(Cl)cc1)NC(=O)c1ccccn1)C(=O)N[C@@H](Cc1c[nH]c2ccccc12)C(N)=O` (stereo in doubt), the 50% effective concentration (EC50) in assay [1] is 947 nM; on Melanocortin receptor 3 it was 452 nM; on Melanocortin receptor 4 it was 31.3 nM. Besides, the Ratio in assay [2] came to 30; in assay [3], 14.

For `N=C(N)NCCC[C@H](NC(=O)C(Cc1ccccc1)NC(=O)[C@H](Cc1ccc(Cl)cc1)NC(=O)CCCC(=O)c1ccccc1)C(=O)N[C@@H](Cc1c[nH]c2ccccc12)C(N)=O` (stereo in doubt), the EC50 in assay [1] was 23 nM; at Melanocortin receptor 3, 41 nM; at Melanocortin receptor 4, 58 nM. For the same compound, the Ratio in assay [2] turned out to be 0.4; in assay [3], 0.7.

With `N=C(N)NCCC[C@H](NC(=O)C(Cc1ccccc1)NC(=O)[C@H](Cc1ccc(Cl)cc1)NC(=O)CCCCc1ccccc1)C(=O)N[C@@H](Cc1c[nH]c2ccccc12)C(N)=O` (stereo in doubt), the results for the concentration giving a half-maximal response (EC50) (in assay [1]; on Melanocortin receptor 3; at Melanocortin receptor 4) were 144 nM, 34.5 nM and 45 nM, respectively. Moreover, the Ratio in assay [2] is 3; in assay [3], 1.

`N=C(N)NCCC[C@H](NC(=O)C(Cc1ccccc1)NC(=O)[C@H](Cc1ccc(Cl)cc1)NC(=O)c1c(F)c(F)c(F)c(F)c1F)C(=O)N[C@@H](Cc1c[nH]c2ccccc12)C(N)=O` (stereo in doubt): the results for the EC50 (in assay [1]; on Melanocortin receptor 3; on Melanocortin receptor 4) were 555 nM, 1340 nM and 168 nM, respectively. The Ratio was 3 in assay [2] and 8 in assay [3].

`N=C(N)NCCC[C@H](NC(=O)C(Cc1ccccc1)NC(=O)[C@H](Cc1ccc(Cl)cc1)NC(=O)CO)C(=O)N[C@@H](Cc1c[nH]c2ccccc12)C(N)=O` (stereo in doubt): the figures for the concentration for a half-maximal effect (EC50) (in assay [1]; on Melanocortin receptor 3; on Melanocortin receptor 4) were 499 nM, 1450 nM and 114 nM, respectively. For the same compound, the Ratio turned out to be 4 in assay [2] and 13 in assay [3].

As to `N=C(N)NCCC[C@H](NC(=O)C(Cc1ccccc1)NC(=O)[C@H](Cc1ccc(Cl)cc1)NC(=O)CNC=O)C(=O)N[C@@H](Cc1c[nH]c2ccccc12)C(N)=O` (stereo in doubt), the figures for the EC50 (in assay [1]; at Melanocortin receptor 3; on Melanocortin receptor 4) were 600 nM, 757 nM and 14.1 nM, respectively. In addition, the Ratio is 43 in assay [2] and 54 in assay [3].

For the compound `N=C(N)NCCC[C@H](NC(=O)C(Cc1ccccc1)NC(=O)[C@H](Cc1ccc(Cl)cc1)NC(=O)C(N)=O)C(=O)N[C@@H](Cc1c[nH]c2ccccc12)C(N)=O` (stereo in doubt), the EC50 in assay [1] amounted to 349 nM; on Melanocortin receptor 3, 164 nM; at Melanocortin receptor 4 it was 31.3 nM. Besides, the Ratio turned out to be 11 in assay [2] and 5 in assay [3].

The record behind these values is ChEMBL document CHEMBL1137864, “End-capping of the modified melanocortin tetrapeptide (p-Cl)Phe-D-Phe-Arg-Trp-NH2 as a route to hMC4R agonists” (Bioorg Med Chem Lett, 2004).
